The source of these data is paper PMC9000575, “Solution Equilibrium Studies on Salicylidene Aminoguanidine Schiff Base Metal Complexes: Impact of the Hybridization with L-Proline on Stability, Redox Activity and Cytotoxicity” (Molecules, 2022).

Series [1] is described as follows: stability constants of Cu(II) complexes from deconvolution of EPR spectra. The class given is physicochemical. The conditions noted are these: water, room temperature, I = 0.10 M (KCl). As to the method: All EPR spectra were recorded with a BRUKER EleXsys E500 spectrometer (microwave frequency 9.54 GHz, microwave power 13 mW, modulation amplitude 5 G, modulation frequency 100 kHz, Bruker BioSpin Corporation, Billerica, MA, USA) at 77 K for the Cu(II)—SISC complexes and at room temperature for the Cu(II)—Pro-SISC-Me species. EPR spectra were recorded at different pH values at two metal-to-ligand concentration ratios: 0.25 mM Cu(II) and 0.25 mM or 0.50 mM SISC in 30% DMSO/water solution, and 1.0 mM Pro-SISC-Me and 1.0 mM or 0.5 mM Cu(II) in water. The ionic strength was adjusted with KCl (I = 0.1 M). KOH solution was added to the stock solution to change the pH between pH = 2.5–12.5, which was measured with a Radiometer PHM240 pH/ion Meter equipped with a Metrohm 6.0234.100 glass electrode. The isotropic EPR spectra were recorded at room temperature in a circulating system, and a Heidolph Pumpdrive 5101 peristaltic pump was used to circulate the solution from the titration vessel through a capillary tube into the cavity of the instrument. For the anisotropic EPR spectra, a pH titration was performed outside of the cavity and at selected pH values, and 200 μL samples were transferred from the titration vessel into EPR tubes and the spectra were recorded in a Dewar containing liquid nitrogen.
The anisotropic EPR spectra were analyzed with the EPR program. […]

The test system of series [2] is MRC-5 human embryonal lung fibroblast cells. Briefly: MTT cytotoxicity test. The series is classed as cell-based. To be noted: Homo sapiens, MRC5, MRC-5, 72 h. As to the method:
All cell culture reagents were obtained from Sigma-Aldrich and plastic ware from Sarstedt (Nümbrecht, Germany). Human colon Colo-205 (chemo-sensitive) and Colo-320 (doxorubicin-resistant) adenocarcinoma and MRC-5 human embryonal lung fibroblast cell lines were purchased from LGC Promochem, Teddington, UK. The colon adenocarcinoma cells were cultured in Roswell Park Memorial Institute (RPMI) 1640 medium supplemented with 10% heat-inactivated fetal bovine serum, 2 mM L-glutamine, 1 mM sodium pyruvate and 100 mM HEPES. The MRC-5 cell line was cultured in Eagle’s Minimal Essential Medium (EMEM, Sigma-Aldrich, St. Louis, MO, USA) supplemented with a non-essential amino acid (NEAA) mixture (Sigma-Aldrich, St. Louis, MO, USA) a selection of vitamins, 10% heat-inactivated foetal bovine serum (FBS), 2 mM L-glutamine (Sigma-Aldrich, St. Louis, MO, USA), 1 mM Na-pyruvate (Sigma-Aldrich, St. Louis, MO, USA), nystatin (Sigma-Aldrich, St. Louis, MO, USA) and a penicillin-streptomycin mixture (Sigma-Aldrich, St. Louis, MO, USA) in concentrations of 100 U/L and 10 mg/L, respectively. The cells were incubated at 37 °C, in a 5% CO2, 95% air atmosphere. All cell lines were detached with Trypsin-Versene® (EDTA) solution for 5 min at 37 °C.
The tested compounds were dissolved in 90% (v/v) DMSO/H2O using 8 mM concentration, […] in the final samples the DMSO content was always lower than 1%. Then stock solutions were diluted in complete culture medium, and two-fold serial dilutions of compounds were prepared in 100 μL of the medium, horizontally. The semi-adherent colon adenocarcinoma cells were treated with Trypsin-Versene (EDTA) solution. They were adjusted to a density of 1 × 10^4 cells in 100 μL of RPMI 1640 or EMEM medium and were added to each well, with the exception of the medium control wells. The final volume of the wells containing compounds and cells was 200 μL. The plates containing Colo-205, Colo-320 or MRC-5 cells were incubated at 37 °C for 72 h; at the end of the incubation period, 20 μL of MTT solution (from a stock solution of 5 mg/mL) were added to each well. After incubation at 37 °C for 4 h, 100 μL of SDS solution (10% in 0.01 M HCI) were added to each well, and the plates were further incubated at 37 °C overnight. Cell growth was determined by measuring the optical density (OD) at 540/630 nm with a Multiskan EX plate reader (Thermo Labsystems, Cheshire, WA, USA). Inhibition of the cell growth (expressed as IC50: inhibitory concentration that reduces by 50% the growth of the cells exposed to the tested compounds) was determined from the sigmoid curve where 100 − ((ODsample − ODmedium control)/(ODcell control − ODmedium control)) × 100 values were plotted against the logarithm of compound concentrations. Curves were fitted by GraphPad Prism software (2021, Graphpad Software, San Diego, CA, USA) using the sigmoidal dose–response model (comparing variable and fixed slopes). The IC50 values were obtained from at least three independent experiments.

With `Cc1cc(C=NNC(=N)N)c(O)c(CN2CCCC2C(=O)O)c1` (stereo not shown) [Pro-SISC-Me], in series [1], the “logβ [CuLH−1]” value stood at 6.50 and the “logβ [CuL]+” value was found to be 14.78. This compound gave an IC50 in series [2] of more than 80 µM.
Turning to `N=C(N)NN=Cc1ccccc1O` [SISC, 2-(2-hydroxybenzylidene)hydrazinecarboximidamide], the IC50 in series [2] is more than 80 µM.
